Results: paper PMC6280482, “The natural polyphenol curcumin induces apoptosis by suppressing STAT3 signaling in esophageal squamous cell carcinoma” (Journal of Experimental & Clinical Cancer Research : CR, 2018)

Target: JAK2 (Homo sapiens, UniProt O60674)
Experiment: cell-free kinase activity assay with purified JAK2 (HotSpot, Reaction Biology)
Type: biochemical

Chain of JAK2 (O60674 whole entry): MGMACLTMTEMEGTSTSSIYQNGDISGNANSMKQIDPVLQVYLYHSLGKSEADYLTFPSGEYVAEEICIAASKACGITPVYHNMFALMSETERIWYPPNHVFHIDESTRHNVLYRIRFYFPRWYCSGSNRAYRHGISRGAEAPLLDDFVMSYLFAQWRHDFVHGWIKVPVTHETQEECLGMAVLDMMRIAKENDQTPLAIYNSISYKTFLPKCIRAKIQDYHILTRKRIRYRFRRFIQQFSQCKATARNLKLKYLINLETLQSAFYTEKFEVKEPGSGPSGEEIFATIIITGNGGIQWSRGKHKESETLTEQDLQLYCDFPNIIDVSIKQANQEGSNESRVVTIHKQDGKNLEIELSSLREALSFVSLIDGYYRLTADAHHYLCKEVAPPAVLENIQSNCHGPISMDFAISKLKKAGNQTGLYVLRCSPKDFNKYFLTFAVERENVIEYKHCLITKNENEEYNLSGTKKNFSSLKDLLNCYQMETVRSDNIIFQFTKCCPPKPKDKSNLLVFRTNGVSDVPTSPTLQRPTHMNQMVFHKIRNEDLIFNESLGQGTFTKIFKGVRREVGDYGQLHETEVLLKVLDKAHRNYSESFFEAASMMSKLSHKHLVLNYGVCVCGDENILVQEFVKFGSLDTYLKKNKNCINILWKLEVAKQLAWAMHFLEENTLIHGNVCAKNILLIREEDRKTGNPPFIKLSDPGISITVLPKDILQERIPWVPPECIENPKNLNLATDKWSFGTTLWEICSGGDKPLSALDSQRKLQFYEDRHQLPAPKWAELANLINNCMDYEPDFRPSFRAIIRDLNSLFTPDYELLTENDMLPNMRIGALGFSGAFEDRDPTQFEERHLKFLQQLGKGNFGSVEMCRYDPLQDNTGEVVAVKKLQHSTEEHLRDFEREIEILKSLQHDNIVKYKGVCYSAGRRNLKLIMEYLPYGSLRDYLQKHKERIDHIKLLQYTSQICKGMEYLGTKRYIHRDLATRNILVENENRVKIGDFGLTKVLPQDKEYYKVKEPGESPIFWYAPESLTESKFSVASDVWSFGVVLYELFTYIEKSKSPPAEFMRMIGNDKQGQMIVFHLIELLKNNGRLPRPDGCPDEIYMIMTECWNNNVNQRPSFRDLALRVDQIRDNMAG

In the case of `COc1cc(/C=C/C(=O)CC(=O)/C=C/c2ccc(O)c(OC)c2)ccc1O` [curcumin], the IC50 is reported as roughly 8 µM.
